Drawing on patent publication US20240287138A1, “CYCLIC PEPTIDES FOR INHIBITING TNF RECEPTOR 1 ACTIVITY” (Merck Sharp & Dohme LLC, priority 2023, published 2024), this text covers IC50 and Kd for 8 compounds.

The target in assay [1] is T1, TNFα-induced NF-κB signal transduction pathway (TNFR1 signaling) in THP-1 cells (Homo sapiens, UniProt P19438).
T1 sequence (P19438 30-455): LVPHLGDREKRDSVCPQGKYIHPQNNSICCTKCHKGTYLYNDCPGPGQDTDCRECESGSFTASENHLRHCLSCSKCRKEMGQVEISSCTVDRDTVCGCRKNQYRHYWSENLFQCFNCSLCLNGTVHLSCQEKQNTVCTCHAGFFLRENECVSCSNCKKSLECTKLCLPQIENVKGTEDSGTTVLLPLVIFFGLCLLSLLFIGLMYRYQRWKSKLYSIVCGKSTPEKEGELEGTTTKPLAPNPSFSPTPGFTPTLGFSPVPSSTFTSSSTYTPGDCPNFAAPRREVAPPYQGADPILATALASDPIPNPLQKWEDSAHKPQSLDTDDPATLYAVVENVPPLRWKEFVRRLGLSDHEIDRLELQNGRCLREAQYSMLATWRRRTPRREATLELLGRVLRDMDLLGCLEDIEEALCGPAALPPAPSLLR
Put plainly: THP-1 Lucia NF-κB reporter cell assay, inhibition of TNFα-induced NF-κB signaling. It counts as cell-based. The conditions noted are these: THP-1 NF-κB Lucia reporter cells, 10 ng/mL TNFα, 16-18 h, secreted luciferase; read-out: THP-1 IC50. In short, it runs like this:
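Read-out: secreted Lucia luciferase luminescence (QUANTI-Luc) from supernatant after 16-18 h, 37 °C, 10 ng/mL rhTNFα. Peptide pretreatment 1 h at 37 °C; 20,000 cells/well, selection antibiotics omitted. IC50 via 4-parameter logistic model against min/max controls.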

Assay [2] deals with T2, human soluble TNFR1 (sTNFR1) (Homo sapiens, UniProt P19438).
T2 construct: made in house; host or cells: Sf21 (baculovirus)
T2 sequence (P19438 with tags, fused parts or gaps): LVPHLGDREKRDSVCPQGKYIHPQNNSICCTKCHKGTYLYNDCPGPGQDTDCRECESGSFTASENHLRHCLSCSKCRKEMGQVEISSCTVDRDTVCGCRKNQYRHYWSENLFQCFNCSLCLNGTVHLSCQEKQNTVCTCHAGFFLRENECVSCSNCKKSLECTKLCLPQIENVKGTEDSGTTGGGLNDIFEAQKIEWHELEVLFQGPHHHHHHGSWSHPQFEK
Put plainly: Human sTNFR1-peptide displacement assay (LanthaScreen Eu TR-FRET binding assay). The method in brief: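 Readout is the 665/615 nm TR-FRET ratio (Eu anti-His donor, streptavidin-Alexa647 acceptor), normalized to DMSO and saturating displacer, fit by Morrison-based five-parameter logistic for Kd^app. His-tagged sTNFR1 (1-211) prebound to 100 nM biotinylated peptide SEQ ID NO.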

Structures are written as SMILES. Numbered stars: 1 amine (or outer) side, 2 acyl side, 3 side chain; on linkers, the order of the positions; unused ones are H or OH. Bridge positions count the residues as written; N and C are the ends. Square brackets hold non-standard residues; d marks the D form. Peptide text beside a SMILES is read from it. * marks the point of attachment. Trp(βS-Me,7-OMe) = COc1cccc2c([C@H](C)[C@H](N)C(=O)O)c[nH]c12; Trp(1-CH2COOH) = N[C@@H](Cc1cn(CC(=O)O)c2ccccc12)C(=O)O; X44 = NC(=O)c1ccc([C@@H](O)[C@H](N[*:1])C(=O)[*:2])cc1; X28 = NC(=O)c1ccc([C@H](O)[C@H](N[*:1])C(=O)[*:2])cc1; Trp(7-CN) = N#Cc1cccc2c(C[C@H](N)C(=O)O)c[nH]c12; Trp(7-Cl) = N[C@@H](Cc1c[nH]c2c(Cl)cccc12)C(=O)O; X62 = O=C(O)c1ccc(C[C@H](N[*:1])C(=O)[*:2])cc1Cl; Phe(3-COOH) = N[C@@H](Cc1cccc(C(=O)O)c1)C(=O)O; Phe(4-CONH2) = NC(=O)c1ccc(C[C@H](N)C(=O)O)cc1; Phe(4-COOH) = N[C@@H](Cc1ccc(C(=O)O)cc1)C(=O)O; 4Pal(3S-Me) = C[C@@H](c1ccncc1)[C@H](N)C(=O)O; Trp(7-aza) = N[C@@H](Cc1c[nH]c2ncccc12)C(=O)O; X46 = Nc1ncc(C[C@H](N[*:1])C(=O)[*:2])cn1; Pip(5R-OH) = O=C(O)[C@@H]1CC[C@@H](O)CN1; X1 = O=C([C@@H]1CC[C@H](N[*:1])C1)[*:2]; X40 = CCN([C@H](C)C(=O)[*:2])[*:1]; Pip(4-aza) = O=C(O)[C@@H]1CNCCN1; 4Pal = N[C@@H](Cc1ccncc1)C(=O)O; NMeE = CN[C@@H](CCC(=O)O)C(=O)O; dHyp = O=C(O)[C@H]1C[C@H](O)CN1; aThr = C[C@H](O)[C@H](N)C(=O)O; Ahp(2) = CCCCC[C@H](N)C(=O)O; αMeS = C[C@](N)(CO)C(=O)O; Carboxymethyl = O=C(O)C*; Nle = CCCC[C@H](N)C(=O)O; Sar = CNCC(=O)O

By IC50 is commonly meant the point on the concentration scale where inhibition reaches its midpoint. Consider `CCCC[C@@H]1NC(=O)CSC[C@@H](C(N)=O)NC(=O)[C@H]([C@@H](C)c2c[nH]c3c(OC)cccc23)NC(=O)CN(C)C(=O)[C@H](Cc2cccc(C(=O)O)c2)NC(=O)[C@H](Cc2ccc(C(N)=O)cc2)NC(=O)[C@](C)(CO)NC(=O)[C@H](Cc2c[nH]c3c(Cl)cccc23)NC(=O)[C@H](Cc2ccc(C(N)=O)cc2)NC(=O)[C@H](CC(N)=O)NC(=O)[C@H](CCC(=O)O)N(C)C(=O)[C@H](Cc2c[nH]c3ccccc23)NC(=O)[C@@H]2CNCCN2C(=O)[C@H](Cc2ccncc2)NC1=O` [SEQ ID NO. 184] ({CH2CO}-[Nle][4Pal][Pip(4-aza)]W[NMeE]N[Phe(4-CONH2)][Trp(7-Cl)][αMeS][Phe(4-CONH2)][Phe(3-COOH)][Sar][Trp(βS-Me,7-OMe)]C-NH2; thioether N-14), for which the IC50 amounted to 1.7 nM in assay [1] and 0.5 nM in assay [2].
Broadly, the Kd is the constant that tells how readily two partners part at equilibrium. The low end stands for a tighter complex, the high end for a looser complex. In the case of `CCCC[C@@H]1NC(=O)CSC[C@@H](C(N)=O)NC(=O)[C@H]([C@@H](C)c2c[nH]c3c(OC)cccc23)NC(=O)CN(C)C(=O)[C@H](Cc2ccc(C(=O)O)cc2)NC(=O)[C@H](Cc2ccc(C(=O)O)cc2)NC(=O)[C@](C)(CO)NC(=O)[C@H](Cc2c[nH]c3c(Cl)cccc23)NC(=O)[C@H](Cc2ccncc2)NC(=O)[C@H](CC(N)=O)NC(=O)[C@H](CCC(=O)O)N(C)C(=O)[C@H](Cc2c[nH]c3ccccc23)NC(=O)[C@@H]2CNCCN2C(=O)[C@H](Cc2ccncc2)NC1=O` [SEQ ID NO. 251] ({CH2CO}-[Nle][4Pal][Pip(4-aza)]W[NMeE]N[4Pal][Trp(7-Cl)][αMeS][Phe(4-COOH)][Phe(4-COOH)][Sar][Trp(βS-Me,7-OMe)]C-NH2; thioether N-14), the IC50 in assay [1] amounted to 2.7 nM. In assay [2], the IC50 was 0.5 nM and the Kd was found to be 1.17 nM.
On to `CCCCC[C@@H]1NC(=O)[C@@H]2CC[C@@H](C2)NC(=O)[C@H]([C@@H](C)c2c[nH]c3c(OC)cccc23)NC(=O)CN(C)C(=O)[C@H](Cc2ccc(C(N)=O)cc2)NC(=O)[C@H](Cc2ccc(C(N)=O)cc2)NC(=O)[C@](C)(CO)NC(=O)[C@H](Cc2c[nH]c3c(C#N)cccc23)NC(=O)[C@H](Cc2ccc(C(=O)O)cc2)NC(=O)[C@H](CC(N)=O)NC(=O)[C@H]2C[C@H](O)CN2C(=O)[C@H](Cc2c[nH]c3ccccc23)NC(=O)[C@H]([C@H](C)O)NC(=O)[C@H]([C@@H](C)c2ccncc2)NC1=O` [SEQ ID NO. 91] (cyclo([Ahp(2)][4Pal(3S-Me)][aThr]W[dHyp]N[Phe(4-COOH)][Trp(7-CN)][αMeS][Phe(4-CONH2)][Phe(4-CONH2)][Sar][Trp(βS-Me,7-OMe)][X1])), for which the concentration for half-maximal inhibition (IC50) in assay [1] was 0.9 nM. The same compound registered a Kd in assay [2] of 0.24 nM.
Take `CCCC[C@@H]1NC(=O)CSC[C@@H](C(N)=O)NC(=O)[C@H]([C@@H](C)c2c[nH]c3c(OC)cccc23)NC(=O)CN(C)C(=O)[C@H](Cc2ccc(O)cc2)NC(=O)[C@H](Cc2ccc(C(N)=O)cc2)NC(=O)[C@](C)(CO)NC(=O)[C@H](Cc2c[nH]c3c(Cl)cccc23)NC(=O)[C@H](Cc2ccncc2)NC(=O)[C@H](CC(N)=O)NC(=O)[C@@H](C)N(CC)C(=O)[C@H](Cc2c[nH]c3ccccc23)NC(=O)[C@@H]2CC[C@@H](O)CN2C(=O)[C@H](Cc2ccncc2)NC1=O` [SEQ ID NO. 186] ({CH2CO}-[Nle][4Pal][Pip(5R-OH)]W[X40]N[4Pal][Trp(7-Cl)][αMeS][Phe(4-CONH2)]Y[Sar][Trp(βS-Me,7-OMe)]C-NH2; thioether N-14): the IC50 in assay [1] is 1.9 nM; in assay [2] it was 0.5 nM. In addition, in assay [2], the affinity, expressed as Kd, was 0.42 nM.
Turning to `CCCC[C@@H]1NC(=O)[C@@H]2CC[C@@H](C2)NC(=O)[C@H]([C@@H](C)c2c[nH]c3c(OC)cccc23)NC(=O)CN(C)C(=O)[C@H](Cc2ccc(OCC(=O)O)cc2)NC(=O)[C@H](Cc2cnc(N)nc2)NC(=O)[C@](C)(CO)NC(=O)[C@H](Cc2c[nH]c3c(C#N)cccc23)NC(=O)[C@H](Cc2ccc(OCC(=O)O)cc2)NC(=O)[C@H](CC(N)=O)NC(=O)[C@H]2C[C@H](O)CN2C(=O)[C@H](Cc2cn(CC(=O)O)c3ccccc23)NC(=O)[C@@H]2CC[C@@H](O)CN2C(=O)[C@H](Cc2ccncc2)NC1=O` [SEQ ID NO. 6] (cyclo([4Pal][Pip(5R-OH)][Trp(1-CH2COOH)][dHyp]NY(Carboxymethyl)[Trp(7-CN)][αMeS][X46]Y(Carboxymethyl)[Sar][Trp(βS-Me,7-OMe)][X1][Nle])), the 50% inhibitory concentration (IC50) in assay [1] was found to be 0.8 nM. For the same compound, the Kd in assay [2] came out at 0.08 nM.
The corresponding values for `CCCC[C@@H]1NC(=O)[C@@H]2CC[C@@H](C2)NC(=O)[C@H]([C@@H](C)c2c[nH]c3c(OC)cccc23)NC(=O)CN(C)C(=O)[C@H]([C@H](O)c2ccc(C(N)=O)cc2)NC(=O)[C@H]([C@@H](O)c2ccc(C(N)=O)cc2)NC(=O)[C@](C)(CO)NC(=O)[C@H](Cc2c[nH]c3c(C#N)cccc23)NC(=O)[C@H](Cc2ccc(C(=O)O)cc2)NC(=O)[C@H](CC(N)=O)NC(=O)[C@H]2C[C@H](O)CN2C(=O)[C@H](Cc2c[nH]c3ncccc23)NC(=O)[C@@H]2CC[C@@H](O)CN2C(=O)[C@H](Cc2ccncc2)NC1=O` [SEQ ID NO. 90] (cyclo([4Pal][Pip(5R-OH)][Trp(7-aza)][dHyp]N[Phe(4-COOH)][Trp(7-CN)][αMeS][X28][X44][Sar][Trp(βS-Me,7-OMe)][X1][Nle])) are 1.2 nM and 0.12 nM.
Consider `CCCC[C@@H]1NC(=O)[C@@H]2CC[C@@H](C2)NC(=O)[C@H]([C@@H](C)c2c[nH]c3c(OC)cccc23)NC(=O)CN(C)C(=O)[C@H](Cc2ccc(C(=O)O)c(Cl)c2)NC(=O)[C@H](Cc2ccc(C(N)=O)cc2)NC(=O)[C@](C)(CO)NC(=O)[C@H](Cc2c[nH]c3c(C#N)cccc23)NC(=O)[C@H](Cc2ccc(C(=O)O)c(Cl)c2)NC(=O)[C@H](CC(N)=O)NC(=O)[C@H]2C[C@H](O)CN2C(=O)[C@H](Cc2c[nH]c3ccccc23)NC(=O)[C@@H]2CC[C@@H](O)CN2C(=O)[C@H](Cc2ccncc2)NC1=O` [SEQ ID NO. 207] (cyclo([4Pal][Pip(5R-OH)]W[dHyp]N[X62][Trp(7-CN)][αMeS][Phe(4-CONH2)][X62][Sar][Trp(βS-Me,7-OMe)][X1][Nle])), for which the IC50 in assay [1] turned out to be 1 nM. In assay [2], this compound displayed a Kd of 0.12 nM.
As to `CCCC[C@@H]1NC(=O)CSC[C@@H](C(N)=O)NC(=O)[C@H]([C@@H](C)c2c[nH]c3c(OC)cccc23)NC(=O)CN(C)C(=O)[C@H](Cc2ccc(O)cc2)NC(=O)[C@H](Cc2cccc(C(=O)O)c2)NC(=O)[C@](C)(CO)NC(=O)[C@H](Cc2c[nH]c3c(Cl)cccc23)NC(=O)[C@H](Cc2ccncc2)NC(=O)[C@H](CC(N)=O)NC(=O)[C@H](CCC(=O)O)N(C)C(=O)[C@H](Cc2c[nH]c3ccccc23)NC(=O)[C@@H]2CNCCN2C(=O)[C@H](Cc2ccncc2)NC1=O` [SEQ ID NO. 249] ({CH2CO}-[Nle][4Pal][Pip(4-aza)]W[NMeE]N[4Pal][Trp(7-Cl)][αMeS][Phe(3-COOH)]Y[Sar][Trp(βS-Me,7-OMe)]C-NH2; thioether N-14), the IC50 in assay [1] was determined as 4.4 nM; in assay [2], 1 nM.
